Source: patent US8927500B2, “Peptidomimetic macrocycles” (Aileron Therapeutics, Inc., priority 2012, dated 2015)
Where a SMILES comes first, the peptide text is derived from it. Bridges are numbered along the chain shown (N, C = ends). [ ]: non-standard residue; d: D form. R8 = C=CCCCCCC[C@@](C)(N)C(=O)O; S5 = C=CCCC[C@](C)(N)C(=O)O

Key:
[1] = system: Caspase 3; assay: Caspase 3 detection assay in SJSA1 cells; assay type: cell-based; details: 48 h, Caspase 3 activation over DMSO-treated cells; for caspase 0.3 uM: 0.3 uM peptide; for caspase 3 uM: 3 uM peptide; for caspase 10 uM: 10 uM peptide; for caspase 30 uM: 30 uM peptide; for caspase 1 uM: 1 uM peptide
[2] = system: SJSA-1 cells; assay: Cell lysis by peptidomimetic macrocycles (LDH release); assay type: cell-based; details: 1 h at 37C

Row | Structure (SMILES) | caspase 0.3 uM [1] | caspase 3 uM [1] | caspase 10 uM [1] | caspase 30 uM [1] | 6.25 uM % Lysed cells (1 h LDH) [2] | 25 uM % Lysed cells (1 h LDH) [2] | 50 uM % Lysed cells (1 h LDH) [2] | caspase 1 uM [1]
1 | CC(=O)N[C@@H](CC(C)C)C(=O)N[C@H](C(=O)N[C@@H](Cc1ccccc1)C(=O)N[C@]1(C)CCCCCCC=CCCC[C@@](C)(C(=O)N[C@@H](CO)C(=O)N[C@@H](C)C(=O)N[C@@H](C)C(N)=O)NC(=O)[C@H](C2CCCC2)NC(=O)[C@H](CCC(N)=O)NC(=O)[C@H](C)NC(=O)[C@H](Cc2c[nH]c3ccccc23)NC(=O)[C@H](Cc2ccc(O)cc2)NC(=O)[C@H](CCC(=O)O)NC1=O)[C@@H](C)O (single isomer, unassigned) [compound 149] | 1 | 2 | 4 | 10 | 6% | 7% | 21% | 
2 | CC(=O)N[C@@H](CC(C)C)C(=O)N[C@H](C(=O)N[C@@H](Cc1ccccc1)C(=O)N[C@]1(C)CCCCCCC=CCCC[C@@](C)(C(=O)N[C@@H](CO)C(=O)N[C@@H](C)C(=O)N[C@@H](C)C(N)=O)NC(=O)[C@H](CC2CCC2)NC(=O)[C@H](CCC(N)=O)NC(=O)[C@H](C)NC(=O)[C@H](Cc2c[nH]c3ccccc23)NC(=O)[C@H](Cc2ccc(O)cc2)NC(=O)[C@H](CCC(=O)O)NC1=O)[C@@H](C)O (single isomer, unassigned) [compound 153] | 2 | 10 | 15 | 20 | 4% | 2% | 3% | 
3 | CC(=O)N[C@@H](CC(C)C)C(=O)N[C@H](C(=O)N[C@@H](Cc1ccccc1)C(=O)N[C@]1(C)CCCCCCC=CCCC[C@@](C)(C(=O)N[C@@H](C)C(=O)N[C@@H](C)C(=O)N[C@@H](Cc2ccccc2)C(=O)N[C@H](C)C(N)=O)NC(=O)[C@H](CC(C)C)NC(=O)[C@H](CCC(N)=O)NC(=O)[C@H](C)NC(=O)[C@H](Cc2c[nH]c3ccccc23)NC(=O)[C@H](Cc2ccc(O)cc2)NC(=O)[C@H](CCC(=O)O)NC1=O)[C@@H](C)O (single isomer, unassigned) [compound 219] | 1 | 5 | 17 | 34 | 0% | −1% | 2% | 
4 | CC[C@H](C)[C@H](NC(=O)[C@H](C)NC(=O)[C@H](C)NC(=O)[C@]1(C)CCCC=CCCCCCC[C@@](C)(NC(=O)[C@H](Cc2ccccc2)NC(=O)[C@@H](NC(=O)[C@H](CC(C)C)NC(C)=O)[C@@H](C)O)C(=O)N[C@@H](CCC(=O)O)C(=O)N[C@@H](Cc2c[nH]cn2)C(=O)N[C@@H](Cc2c[nH]c3ccccc23)C(=O)N[C@@H](C)C(=O)N[C@@H](CCC(N)=O)C(=O)N[C@@H](CC(C)C)C(=O)N1)C(=O)N[C@H](C)C(N)=O (single isomer, unassigned) [compound 223] | 1 | 1 | 5 | 18 | −2% | −4% | −1% | 
5 | CC(=O)N[C@@H](CC(C)C)C(=O)N[C@H](C(=O)N[C@@H](Cc1ccccc1)C(=O)N[C@]1(C)CCCCCCC=CCCC[C@@](C)(C(=O)N[C@@H](C)C(=O)N[C@@H](C)C(=O)N[C@@H](C)C(=O)N[C@@H](C)C(=O)N[C@@H](C)C(=O)N[C@H](C)C(N)=O)NC(=O)[C@H](CC(C)C)NC(=O)[C@H](CCC(N)=O)NC(=O)[C@H](C)NC(=O)[C@H](Cc2c[nH]c3cc(Cl)ccc23)NC(=O)[C@H](Cc2ccc(O)cc2)NC(=O)[C@H](C)NC1=O)[C@@H](C)O (single isomer, unassigned) [compound 338] | 1 | 23 | 20 | 29 | 0% | 0% | 1% | 5
6 | CSCC[C@H](NC(=O)[C@H](C)NC(=O)[C@H](C)NC(=O)[C@]1(C)CCCC=CCCCCCC[C@@](C)(NC(=O)[C@H](Cc2ccccc2)NC(=O)[C@@H](NC(=O)[C@H](CC(C)C)NC(C)=O)[C@@H](C)O)C(=O)N[C@@H](C)C(=O)N[C@@H](Cc2ccc(O)cc2)C(=O)N[C@@H](Cc2c[nH]c3ccccc23)C(=O)N[C@@H](C)C(=O)N[C@@H](C)C(=O)N[C@@H](CC(C)C)C(=O)N1)C(=O)N[C@H](C)C(N)=O [compound 72] (Ac-LTF[R8]AYWAAL[S5]AAM[dA]-NH2; staple 4-11) | 1 | 1 | 4 | 10 | 2% | 0% | 3% | 
7 | CC(=O)N[C@@H](CC(C)C)C(=O)N[C@H](C(=O)N[C@@H](Cc1ccc(F)c(F)c1)C(=O)N[C@]1(C)CCCCCC/C=C/CCC[C@@](C)(C(=O)N[C@@H](CO)C(=O)N[C@@H](C)C(=O)N[C@@H](C)C(N)=O)NC(=O)[C@H](CCC(C)C)NC(=O)[C@H](CCC(N)=O)NC(=O)[C@H](C)NC(=O)[C@H](Cc2c[nH]c3ccccc23)NC(=O)[C@H](Cc2ccc(O)cc2)NC(=O)[C@H](CCC(=O)O)NC1=O)[C@@H](C)O [compound 160] | 2 | 10 | 16 | 31 | −1% | −1% | 1% | 
8 | CC(=O)N[C@@H](CC(C)C)C(=O)N[C@H](C(=O)N[C@@H](Cc1ccccc1)C(=O)N[C@]1(C)CCCCCCC=CCCC[C@@](C)(C(=O)N[C@@H](C)C(=O)N[C@@H](Cc2c[nH]cn2)C(=O)N[C@@H](Cc2ccccc2)C(=O)N[C@@H](C)C(N)=O)NC(=O)[C@H](CC(C)C)NC(=O)[C@H](CCC(N)=O)NC(=O)[C@H](C)NC(=O)[C@H](Cc2c[nH]c3ccccc23)NC(=O)[C@H](Cc2c[nH]cn2)NC(=O)[C@H](C)NC1=O)[C@@H](C)O [compound 183] (Ac-LTF[R8]AHWAQL[S5]AHFA-NH2; staple 4-11) | 1 | 1 | 4 | 8 | 2% | 0% | 3% | 
9 | CC(=O)N[C@@H](CC(C)C)C(=O)N[C@H](C(=O)N[C@@H](Cc1ccccc1)C(=O)N[C@]1(C)CCCCCC/C=C/CCC[C@@](C)(C(=O)N[C@@H](C)C(=O)N[C@@H](C)C(=O)N[C@@H](C)C(=O)N[C@@H](C)C(=O)N[C@@H](C)C(=O)N[C@H](C)C(N)=O)NC(=O)[C@H](CC(C)C)NC(=O)[C@H](CCC(N)=O)NC(=O)[C@H](C)NC(=O)[C@H](Cc2c[nH]c3ccccc23)NC(=O)[C@H](Cc2ccc(O)cc2)NC(=O)[C@H](CCC(=O)O)NC1=O)[C@@H](C)O [compound 331] (Ac-LTF[R8]EYWAQL[S5]AAAAA[dA]-NH2; staple (E) 4-11) | 4.5 | 11 | 14.5 | 30.5 | 0% | 0% | 0% | 8
